From PubChem BioAssay (NCI)
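The compound was tested at five concentrations on cells cultured in 96-well plates, with a 48-hour exposure period. Here, GI50 denotes the concentration required for 50% inhibition of growth. TGI: concentration producing complete growth inhibition.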

Legend:
Assay in all cases: NCI tumour cell line growth inhibition, 48 h
BT-549 breast = test system: BT-549 breast
SK-MEL-28 melanoma = test system: SK-MEL-28 melanoma
ACHN renal = test system: ACHN renal
SF-539 CNS = test system: SF-539 CNS
SW-620 colon = test system: SW-620 colon
HOP-92 NSCLC = test system: HOP-92 NSCLC
A498 renal = test system: A498 renal
SK-MEL-5 melanoma = test system: SK-MEL-5 melanoma
U251 CNS = test system: U251 CNS
NCI-H460 lung = test system: NCI-H460 lung
EKVX NSCLC = test system: EKVX NSCLC
MOLT-4 leukemia = test system: MOLT-4 leukemia
OVCAR-3 ovarian = test system: OVCAR-3 ovarian
A549 NSCLC = test system: A549 NSCLC
NCI-H522 lung = test system: NCI-H522 lung
MDA-MB-435 = test system: MDA-MB-435
RPMI-8226 leukemia = test system: RPMI-8226 leukemia
NCI-H226 lung = test system: NCI-H226 lung
T-47D breast = test system: T-47D breast
HOP-62 NSCLC = test system: HOP-62 NSCLC
COLO 205 colon = test system: COLO 205 colon
UO-31 renal = test system: UO-31 renal
PC-3 prostate = test system: PC-3 prostate
OVCAR-5 ovarian = test system: OVCAR-5 ovarian
RXF 393 renal = test system: RXF 393 renal
MCF7 breast = test system: MCF7 breast
UACC-257 melanoma = test system: UACC-257 melanoma
SF-268 CNS = test system: SF-268 CNS
MALME-3M melanoma = test system: MALME-3M melanoma

NS(=O)(=O)c1ccc(N=Nc2c(O)[nH]c3ccc(C(=O)NCCCn4ccnc4)cc23)cc1
GI50 (BT-549 breast): > 25 µM
TGI (BT-549 breast): > 25 µM
GI50 (SK-MEL-28 melanoma): > 25 µM
TGI (SK-MEL-28 melanoma): > 25 µM
GI50 (ACHN renal): > 25 µM
TGI (ACHN renal): > 25 µM
GI50 (SF-539 CNS): > 25 µM
TGI (SF-539 CNS): > 25 µM
GI50 (SW-620 colon): > 25 µM
TGI (SW-620 colon): > 25 µM
GI50 (HOP-92 NSCLC): > 25 µM
TGI (HOP-92 NSCLC): > 25 µM
GI50 (A498 renal): > 25 µM
TGI (A498 renal): > 25 µM
GI50 (SK-MEL-5 melanoma): > 25 µM
TGI (SK-MEL-5 melanoma): > 25 µM
GI50 (U251 CNS): > 25 µM
TGI (U251 CNS): > 25 µM
GI50 (NCI-H460 lung): > 25 µM
TGI (NCI-H460 lung): > 25 µM
GI50 (EKVX NSCLC): > 25 µM
TGI (EKVX NSCLC): > 25 µM
GI50 (MOLT-4 leukemia): > 25 µM
TGI (MOLT-4 leukemia): > 25 µM
GI50 (OVCAR-3 ovarian): > 25 µM
TGI (OVCAR-3 ovarian): > 25 µM
GI50 (A549 NSCLC): > 25 µM
TGI (A549 NSCLC): > 25 µM
GI50 (NCI-H522 lung): > 25 µM
TGI (NCI-H522 lung): > 25 µM
GI50 (MDA-MB-435): > 25 µM
TGI (MDA-MB-435): > 25 µM
GI50 (RPMI-8226 leukemia): > 25 µM
TGI (RPMI-8226 leukemia): > 25 µM
GI50 (NCI-H226 lung): > 25 µM
TGI (NCI-H226 lung): > 25 µM
GI50 (T-47D breast): > 25 µM
TGI (T-47D breast): > 25 µM
GI50 (HOP-62 NSCLC): > 25 µM
TGI (HOP-62 NSCLC): > 25 µM
GI50 (COLO 205 colon): > 25 µM
TGI (COLO 205 colon): > 25 µM
GI50 (UO-31 renal): > 25 µM
TGI (UO-31 renal): > 25 µM
GI50 (PC-3 prostate): > 25 µM
TGI (PC-3 prostate): > 25 µM
GI50 (OVCAR-5 ovarian): > 25 µM
TGI (OVCAR-5 ovarian): > 25 µM
GI50 (RXF 393 renal): > 25 µM
TGI (RXF 393 renal): > 25 µM
GI50 (MCF7 breast): > 25 µM
TGI (MCF7 breast): > 25 µM
GI50 (UACC-257 melanoma): > 25 µM
TGI (UACC-257 melanoma): > 25 µM
GI50 (SF-268 CNS): > 25 µM
TGI (SF-268 CNS): > 25 µM
GI50 (MALME-3M melanoma): > 25 µM
TGI (MALME-3M melanoma): > 25 µM
